System: IL-12 induced STAT4 phosphorlyation mediated by TYK2/JAK2
Assay: IL-12 Induced pSTAT4 in Human PBMC
Format: cell-based
Details: 1.7 ng/mL IL-12 for 30 minutes
Description: Human PBMC were isolated from buffy coat and are stored frozen for assays as needed. […] 15 μL of compound or DMSO was added to the well at the desired concentrations and incubated at 1 hr at 37° C. 15 μL of stimulus (final concentration of 1.7 ng/mL IL-12) was added for 30 minutes prior to pSTAT4 and total STAT4 analysis using cell lysates prepared and analyzed by MSD reagents as per manufacturer protocol. The final DMSO concentration of compound in the assay was 0.1%.
The IL-12 induced pSTAT4 assay evaluates the inhibition of IL-12 induced STAT4 phosphorlyation mediated by TYK2/JAK2 (heterpdimeric complex).

SMILES | IC50 [µM] | IC50 (0.5 h) [µM]
CNc1cc(Nc2cccn(-c3ncccc3F)c2=O)nc2c(C(=O)NC3CC[C@@]3(C)OC)cnn12 (stereo partly drawn) [Compound I-414] | < 0.1 | 
CNc1cc(-c2cn([C@@H]3CCOC[C@@H]3OC)c3ncccc23)nc2c(C(=O)N[C@H]3CC[C@@H]3OC)cnn12 [Compound I-669] | < 0.1 | 
CNc1cc(Nc2cccn(C3CCOCC3)c2=O)nc2c(C(=O)NC3CC[C@]3(C)O)cnn12 (stereo partly drawn) [Compound I-348] | < 0.1 | 
CNc1cc(Nc2cccn([C@H]3C[C@H](OC)C3)c2=O)nc2c(C(=O)N[C@H]3CCC3(F)F)cnn12 [Compound I-293] | < 0.1 | 
CNc1cc(Nc2cccn(C3CC(F)(F)C3)c2=O)nc2c(C(=O)N[C@@H]3C[C@H]3OC)cnn12 [Compound I-139] | < 0.1 | 
CNc1cc(Nc2cccn([C@H]3CC[C@@H]3OC)c2=O)nc2c(C(=O)N[C@H]3CC[C@H]3O)cnn12 [Compound I-240] | < 0.1 | 
CNc1cc(-c2cn(C3COC3)c3ncccc23)nc2c(C(=O)N[C@@H]3CCC3(F)F)cnn12 [Compound I-675] | < 0.1 | 
CNc1cc(-c2cnc3n([C@@H]4COC[C@H]4OC)cccc2-3)nc2c(C(=O)NC3CC[C@@H]3OC)cnn12 (stereo partly drawn) [Compound I-883] | < 0.1 | 
CO[C@@H]1CC[C@H]1NC(=O)c1cnn2c3c(c(Nc4cccn(C(C)C)c4=O)nc12)OCCN3 [Compound I-760] | < 0.1 | 
CNc1cc(-c2cnc3n([C@@H]4COC[C@H]4OC)cccc2-3)nc2c(C(=O)NC3CC[C@@H]3F)cnn12 (stereo partly drawn) [Compound I-835] | < 0.1 | 
CNc1cc(-c2cn([C@H]3COC[C@H]3F)c3ncccc23)nc2c(C(=O)N[C@H]3COC[C@H]3O)cnn12 [Compound I-726] | < 0.1 | 
CNc1cc(Nc2cccn(C3COC3)c2=O)nc2c(C(=O)N[C@@H]3C[C@@H]3F)cnn12 [Compound I-125] | < 0.1 | 
CNc1cc(-c2cn([C@@H]3CCC4(C3)OCCO4)c3ncccc23)nc2c(C(=O)NC3CC[C@@H]3OC)cnn12 (stereo partly drawn) [Compound I-672] | < 0.1 | 
CNc1cc(-c2cn([C@@H]3COC[C@@H]3F)c3ncccc23)nc2c(C(=O)NC3CC[C@@H]3OC)cnn12 (stereo partly drawn) [Compound I-621] | < 0.1 | 
CNc1cc(Nc2cccn([C@H]3CC[C@H](OC)CC3)c2=O)nc2c(C(=O)N[C@@H]3CC[C@@]3(C)OC)cnn12 [Compound I-428] | < 0.1 | 
CNc1cc(Nc2cccn(-c3ncccc3F)c2=O)nc2c(C(=O)N[C@@H]3CC[C@@]3(C)OC)cnn12 [Compound I-415] | < 0.1 | 
[2H]C([2H])([2H])O[C@H]1CCC1NC(=O)c1cnn2c(NC)cc(Nc3cccn([C@H]4[C@@H]5COC[C@@H]54)c3=O)nc12 (stereo partly drawn) [Compound I-102, 5-((1-((1R,5S,6r)-3-Oxabicyclo[3.1.0]hexan-6-yl)-2-oxo-1,2-dihydropyridin-3-yl)amino)-N-((trans-1,2)-2-(methoxy-d3)cyclobutyl)-7-(methylamino)pyrazolo[1,5-a]pyrimidine-3-carboxamide] |  | < 0.1
CNc1cc(Nc2cccn([C@@H]3C[C@H]3F)c2=O)nc2c(C(=O)NC3CCC3(F)F)cnn12 (stereo partly drawn) [Compound I-274] | < 0.1 | 

SMILES | IC50 [µM] | IC50 (0.5 h) [µM]
CNc1cc(-c2cn([C@@H]3COC[C@H]3O)c3ncccc23)nc2c(C(=O)NC3CCC3(F)F)cnn12 (stereo partly drawn) [Compound I-692] | < 0.1 | 
CNc1cc(-c2cnc3n(CCCN4CCOCC4)cccc2-3)nc2c(C(=O)N[C@H]3CC[C@@H]3OC)cnn12 [Compound I-990] | < 0.1 | 
CNc1cc(-c2cnc3n([C@@H]4CCOC[C@H]4OC)cccc2-3)nc2c(C(=O)N[C@@H]3CC[C@H]3OC)cnn12 [Compound I-896] | < 0.1 | 
CNc1cc(-c2cn([C@@H]3COC[C@H]3OC)c3ccccc23)nc2c(C(=O)NC3CC[C@@H]3OC)cnn12 (stereo partly drawn) [Compound I-744] | < 0.1 | 
CNc1cc(Nc2cccn(C3CCOCC3)c2=O)nc2c(C(=O)N[C@@H]3CC[C@]3(O)C(F)(F)F)cnn12 [Compound I-976] | 0.1 to 0.5 | 
CNc1cc(Nc2cccn(C3CCN(CCF)CC3)c2=O)nc2c(C(=O)NC3CC[C@@H]3F)cnn12 (stereo partly drawn) [Compound I-236] | < 0.1 | 
CNc1cc(Nc2cccn(-c3ccc(C)nc3)c2=O)nc2c(C(=O)N[C@H]3CCC3(F)F)cnn12 [Compound I-325] | < 0.1 | 
CNc1cc(Nc2cccn(C(C)C)c2=O)nc2c(C(=O)NC3CC[C@]3(C)O)cnn12 (stereo partly drawn) [Compound I-339] | < 0.1 | 
CNc1cc(-c2cn([C@H]3COC[C@@H]3O)c3ncccc23)nc2c(C(=O)N[C@H]3CC[C@@H]3OC)cnn12 [Compound I-631] | < 0.1 | 
CNc1cc(-c2cn([C@@H]3COC[C@H]3OC)c3ncccc23)nc2c(C(=O)N[C@@H]3CC[C@@H]3O)cnn12 [Compound I-583] | 0.1 to 0.5 | 
CNc1cc(Nc2cccn([C@@H]3CCC[C@H](C#N)C3)c2=O)nc2c(C(=O)N[C@H]3CCC3(F)F)cnn12 [Compound I-328] | < 0.1 | 
CNc1cc(-c2cn([C@H]3COC[C@@H]3OC)c3ccccc23)nc2c(C(=O)N[C@H]3CC[C@H]3O)cnn12 [Compound I-790] | < 0.1 | 
CNc1cc(Nc2cccn(C3CCOCC3)c2=O)nc2c(C(=O)N[C@H]3CC[C@H]3F)cnn12 [Compound I-192] | < 0.1 | 
CNc1cc(Nc2cccn([C@H]3CC[C@@H]3OC)c2=O)nc2c(C(=O)NC3CC[C@H]3O)cnn12 (stereo partly drawn) [Compound I-239] | < 0.1 | 
CNc1cc(-c2cn([C@H]3CCOC[C@H]3F)c3ncccc23)nc2c(C(=O)NC3CC[C@H]3O)cnn12 (stereo partly drawn) [Compound I-591] | 0.5 to 1 | 
CNc1cc(-c2cn([C@@H]3CC(=O)N(C4CCOCC4)C3)c3ncccc23)nc2c(C(=O)NC3CC[C@@H]3OC)cnn12 (stereo partly drawn) [Compound I-1026, N-(2-methoxycyclobutyl)-7-(methylamino)-5-(1-((R)-5-oxo-1-(tetrahydro-2H-pyran-4-yl)pyrrolidin-3-yl)-1H-pyrrolo[2,3-b]pyridin-3-yl)pyrazolo[1,5-a]pyrimidine-3-carboxamide] |  | 0.1 to 0.5
CNc1cc(-c2cn([C@H]3COC[C@H]3F)c3ncccc23)nc2c(C(=O)N[C@H]3CC[C@H]3O)cnn12 [Compound I-574] | < 0.1 | 
CNc1cc(Nc2cccn([C@H]3C[C@H](F)C3)c2=O)nc2c(C(=O)N[C@@H]3CC[C@H]3O)cnn12 [Compound I-108, 5-((1-((1r,3R)-3-Fluorocyclobutyl)-2-oxo-1,2-dihydropyridin-3-yl)amino)-N-((1R,2R)-2-hydroxycyclobutyl)-7-(methylamino)pyrazolo[1,5-a]pyrimidine-3-carboxamide] | 0.1 to 0.5 | 

More lines, now with the values ahead:

IC50 [µM] | IC50 (0.5 h) [µM] | SMILES
< 0.1 |  | CNc1cc(Nc2cccn([C@H]3C[C@H](F)C3)c2=O)nc2c(C(=O)NC3CC[C@@H]3F)cnn12 (stereo partly drawn) [Compound I-164]
< 0.1 |  | CNc1cc(-c2cn([C@@H]3COC[C@H]3OC)c3ncccc23)nc2c(C(=O)NC3CC[C@H]3F)cnn12 (stereo partly drawn) [Compound I-531]
< 0.1 |  | CNc1cc(Nc2cccn([C@H]3[C@@H]4COC[C@@H]43)c2=O)nc2c(C(=O)N[C@H]3CC[C@H]3F)cnn12 [Compound I-204]
< 0.1 |  | CNc1cc(Nc2cccn([C@@H]3CCOC[C@@H]3OC)c2=O)nc2c(C(=O)N[C@@H]3CC[C@H]3F)cnn12 [Compound I-217]
< 0.1 |  | CNc1cc(-c2cnc3n([C@@H]4CCOC4)cccc2-3)nc2c(C(=O)N[C@H]3CC[C@@H]3OC)cnn12 [Compound I-1004]
0.1 to 0.5 |  | CNc1cc(-c2cn([C@H]3CC(=O)N(C4CCOCC4)C3)c3ncccc23)nc2c(C(=O)N[C@H]3CC[C@@H]3OC)cnn12 [Compound I-1030]
< 0.1 |  | CNc1cc(Nc2cccn(C3CCOCC3)c2=O)nc2c(C(=O)N[C@H]3CC[C@]3(C)O)cnn12 [Compound I-349]
< 0.1 |  | CNc1cc(-c2cn([C@@H]3COC[C@H]3OC)c3ccccc23)nc2c(C(=O)N[C@@H]3CC[C@H]3OC)cnn12 [Compound I-746]
< 0.1 |  | CNc1cc(-c2cn(C(C)C)c3nnccc23)nc2c(C(=O)N[C@@H]3CC[C@H]3OC)cnn12 [Compound I-1009]
< 0.1 |  | CNc1cc(Nc2cccn([C@H]3CC[C@H]3O)c2=O)nc2c(C(=O)N[C@H]3CCC3(F)F)cnn12 [Compound I-287]
< 0.1 |  | CNc1cc(Nc2cccn([C@H]3[C@@H]4COC[C@@H]43)c2=O)nc2c(C(=O)N[C@@H]3CC[C@@]3(C)OC)cnn12 [Compound I-410]
< 0.1 |  | CNc1cc(Nc2cccn(-c3ccccn3)c2=O)nc2c(C(=O)N[C@@H]3CC[C@H]3OC)cnn12 [Compound I-264]
< 0.1 |  | CNc1ccc(-c2cc(NC)n3ncc(C(=O)N[C@H]4CC[C@H]4O)c3n2)n2ccnc12 [Compound I-485]
< 0.1 |  | CNc1cc(Nc2cccn([C@H]3C[C@H](F)C3)c2=O)nc2c(C(=O)N[C@H]3CC[C@H]3O)cnn12 [Compound I-16, 5-((1-((1r,3S)-3-Fluorocyclobutyl)-2-oxo-1,2-dihydropyridin-3-yl)amino)-N-((1S,2R)-2-hydroxycyclobutyl)-7-(methylamino)pyrazolo[1,5-a]pyrimidine-3-carboxamide]
< 0.1 |  | CNc1cc(Nc2cccn([C@@H]3CCCOC3)c2=O)nc2c(C(=O)N[C@@H]3CCC3(F)F)cnn12 [Compound I-317]
< 0.1 |  | CNc1cc(Nc2cccn([C@H]3C[C@@H]3F)c2=O)nc2c(C(=O)N[C@H]3CC[C@@H]3F)cnn12 [Compound I-149]
< 0.1 |  | CNc1cc(-c2cnc3n([C@H]4COC[C@@H]4OC)cccc2-3)nc2c(C(=O)NC3CC[C@H]3F)cnn12 (stereo partly drawn) [Compound I-838]
< 0.1 |  | CNc1cc(-c2cn([C@@H]3COC[C@H]3OC)c3ncccc23)nc2c(C(=O)N[C@H]3CC[C@@H]3OC)cnn12 [Compound I-637]

From patent US11414431B2, “Substituted pyrazolo[1,5-a]pyrimidines as TYK2 inhibitors” (Nimbus Lakshmi, Inc., priority 2018, dated 2022)
